Laboratory results reported in patent US20210276967A1 (OSPEDALE SAN RAFFAELE S.R.L., priority 2018, published 2021).
Several values for one entry are separate records, joined by “and”; a condition that tells them apart may be missing. Equal values may be shown once. Read-outs that look alike come from different tables or passages of the source.

Test: Mouse PK studies (plasma and liver exposure)
Type: in vivo, C57BL/6 mice
Settings: for Plasma concentrations / concentration at 24 h / concentration at 8 h / concentration at 0.25 h / concentration at 0.5 h / concentration at 1 h / concentration at 2 h / concentration at 4 h / concentration at 6 h: PO 100 mpk in 0.5% methocell; for AUC(0-t): read-out: AUC (0-24 h); for AUC: read-out: AUC Extrap
Source text: C57BL/6 mice are used to evaluate plasma and liver exposure and pharmacokinetic parameters after intravenous and oral administration (from 2 to 200 mpk according to the compound tested and the administration route). 12 (+3 spare) healthy C57BL/6N male mice are obtained from Charles River S.p.A. Calco (Como), Italy. Animals are ordered weighing 21 to 27 grams and approximately 7 weeks old. Before and during testing, animals are housed in Individual Ventilated Cages (IVCs Tecniplast) with sawdust as bedding (three animals for cage). Cages are identified by a color code label recording the sample ID, animal number and details of treatment (route, dose and sex). Animals are identified by unique number on tail via permanent marker. Animal room controls are set to maintain temperature within the range from 20 to 24° C. and relative humidity within the range from 40 to 70% and an average daily airflow of at least 10 fresh air changes per hour. Actual conditions are recorded. The room is lit by fluorescent tubes controlled to give an artificial cycle of 12 hours light and 12 hours dark each day. All animals are weighed immediately before testing. Animals are dosed IV in a fed state and PO in a fasted state.
Compounds (from 0.4 to 20 mg/mL according to the compound tested and the administration route) are dissolved in DMSO/PEG400/H2O (20/60/20) for IV administration and 0.5% Methocel E50 or 20% Hydroxypropyl-β-cyclodextrin (HP-β-CD) in citrate buffer pH=5 for PO administration. The appropriate dose volume of the test item, calculated for each animal according to body weight (administration volume: 5 mL/kg for IV or 5 mL/kg or 10 mL/kg for PO), is administered by injection into lateral tail vein using 2.5 mL syringe (BD Plasipak) for IV administration and administered orally by gavage using 5 mL Syringe (BD Plastipak) for PO administration. Whole blood sample (about 0.200 mL) is collected via retro orbital sinus using Isoflurane as anesthetic. Blood is collected in Li-Heparin Sartsted® gel tubes appropriately labeled indicating animal number and time point. Tubes are put in wet ice and then centrifuged within 15 minutes from blood collection. Centrifugation is performed using a Heraeus Multifuge® 3S/3S-R set, at 2200×g for 10 minutes, internal temperature is kept at 4° C. After the centrifugation, about 100 μL of plasma samples are obtained and immediately transferred to 1.5 mL Eppendorf tubes and frozen at −20° C. (24/24 h alarmed). Whole blood samples are collected at different times point (0-0.25-0.5-1-2-4-6-8-24 hours) after dosing and kept frozen (−20° C.) until assayed by LC/MS/MS. Livers are explanted at different time point (0-8-24 hours), washed with saline solution, transferred to Eppendorf tubes and frozen at −80° C. until assayed by LC/MS/MS. Analytical procedures: Plasma samples are extracted using Liquid Handling Robot Hamilton StarPlus by protein precipitation with acetonitrile. Then the samples are centrifuged (3000 rpm×15 min at 4° C.) and the supernatant transferred and dried under nitrogen. The samples are reconstituted in water/acetonitrile 90/10 or 50/50 and then injected directly into an UPLC column. Sample analyses are performed using an API 4000 or/and API 5000 or/and API 4000QTrap Mass Spectrometer interfaced via the Turbo Ion Spray (ESI) to an LC system consisting of an Acquity UPLC Sample Manager autosampler and Acquity UPLC Binary Solvent Manager Pump. The results are calculated using Analyst Software linear regression with 1/x*x weighting. The Assay Precision is calculated for the Quality Controls by Watson Lims database.
Cmax is the maximum compound concentration from oral dosing; Tmax is the time at which Cmax is reached; AUC (0-24) is the area under the concentration vs time curve from 0 to 24 hours; AUC extrap is the area under the curve (AUC) extrapolated to infinity, from dosing time based on the last observed concentration. […]

[1] = male, C57BL/6N, mouse, plasma, po, 100 mg/kg, plasma, PO 100 mg/kg in 0.5% methocell, mice, Mean
[2] = male, C57BL/6N, mouse, plasma, po, 100 mg/kg, plasma, PO 100 mg/kg in 0.5% methocell, mice, individual subject
[3] = plasma, PO 100 mg/kg in 0.5% methocell, mice, individual subject, 100 mg/kg

In the case of `Nc1ccc(C(=O)Nc2cc(F)c(F)c(F)c2)cc1S(N)(=O)=O` [Example E3, 4-amino-3-sulfamoyl-N-(3,4,5-trifluorophenyl)benzamide], the Plasma concentrations (0.25 Hours, individual subject, 100 mg/kg) was 5.05 µM and 3.95 µM, the Plasma concentrations (0.5 Hours, individual subject, 100 mg/kg) was 7.23 µM and 10.6 µM and the Plasma concentrations (1 Hours, individual subject, 100 mg/kg) was 17.2 µM and 9.61 µM. For the same molecule, the Plasma concentrations (2 Hours, individual subject, 100 mg/kg) was 10.7 µM and 17.0 µM, the Plasma concentrations (4 Hours, individual subject, 100 mg/kg) was 11.2 µM and 10.6 µM and the Plasma concentrations (6 Hours, individual subject, 100 mg/kg) was 10.5 µM and 9.06 µM. For the same molecule, the Plasma concentrations (8 Hours, individual subject, 100 mg/kg) was 10.4 µM and 12.1 µM, the concentration at 24 h (8 Hours, individual subject, 100 mg/kg, read-out: Liver concentrations) was 125.87 µM and 119.96 µM and the Plasma concentrations (24 Hours, individual subject, 100 mg/kg) was 0.268 µM and 0.184 µM and 0.0502 µM. For the same molecule, the concentration at 24 h (24 Hours, individual subject, 100 mg/kg, read-out: Liver concentrations) was 0.6272 µM and 3.0342 µM and 1.8500 µM, the Kp at 8 h (male, C57BL/6N, mouse, liver, 100 mpk, 8 h after PO administration, read-out: liver levels higher than plasma (ratio liver/plasma concentration)) was 13 and the concentration at 8 h (male, C57BL/6N, mouse, liver, po, 100 mg/kg, 8 Hours, Mean, read-out: Liver concentrations) was 129 µM. For the same molecule, the concentration at 8 h (male, C57BL/6N, mouse, liver, po, 100 mg/kg, 8 Hours, individual subject, read-out: Liver concentrations) was 143 µM, the concentration at 24 h (male, C57BL/6N, mouse, liver, po, 100 mg/kg, 24 Hours, Mean, read-out: Liver concentrations) was 2 µM and the concentration at 0.25 h (male, C57BL/6N, mouse, plasma, po, 100 mg/kg, 0.25 Hours, Mean, read-out: Plasma concentrations) was 5 µM. The concentration at 0.25 h (male, C57BL/6N, mouse, plasma, po, 100 mg/kg, 0.25 Hours, individual subject, read-out: Plasma concentrations) was 6.15 µM, the concentration at 0.5 h (male, C57BL/6N, mouse, plasma, po, 100 mg/kg, 0.5 Hours, Mean, read-out: Plasma concentrations) was 9 µM and the concentration at 0.5 h (male, C57BL/6N, mouse, plasma, po, 100 mg/kg, 0.5 Hours, individual subject, read-out: Plasma concentrations) was 7.77 µM. It also gave a concentration at 1 h (male, C57BL/6N, mouse, plasma, po, 100 mg/kg, 1 Hours, Mean, read-out: Plasma concentrations) of 12 µM, a concentration at 1 h (male, C57BL/6N, mouse, plasma, po, 100 mg/kg, 1 Hours, individual subject, read-out: Plasma concentrations) of 10.2 µM and a concentration at 2 h (male, C57BL/6N, mouse, plasma, po, 100 mg/kg, 2 Hours, Mean, read-out: Plasma concentrations) of 14 µM. It also gave a concentration at 2 h (male, C57BL/6N, mouse, plasma, po, 100 mg/kg, 2 Hours, individual subject, read-out: Plasma concentrations) of 13 µM, a concentration at 4 h (male, C57BL/6N, mouse, plasma, po, 100 mg/kg, 4 Hours, Mean, read-out: Plasma concentrations) of 11 µM and a concentration at 4 h (male, C57BL/6N, mouse, plasma, po, 100 mg/kg, 4 Hours, individual subject, read-out: Plasma concentrations) of 10.9 µM. For the same molecule, the concentration at 6 h (male, C57BL/6N, mouse, plasma, po, 100 mg/kg, 6 Hours, Mean, read-out: Plasma concentrations) was 10 µM, the concentration at 6 h (male, C57BL/6N, mouse, plasma, po, 100 mg/kg, 6 Hours, individual subject, read-out: Plasma concentrations) was 11.9 µM and the concentration at 8 h (male, C57BL/6N, mouse, plasma, po, 100 mg/kg, 8 Hours, Mean, read-out: Plasma concentrations) was 10 µM. For the same molecule, the concentration at 8 h (male, C57BL/6N, mouse, plasma, po, 100 mg/kg, 8 Hours, individual subject, read-out: Plasma concentrations) was 9.01 µM, the concentration at 24 h (male, C57BL/6N, mouse, plasma, po, 100 mg/kg, 24 Hours, Mean, read-out: Plasma concentrations) was 0.2 µM and the Cmax (male, C57BL/6N, mouse, plasma, po, 100 mg/kg, PO 100 mg/kg in 0.5% methocell, mice, Mean) was 16 µM. It also gave a Cmax (male, C57BL/6N, mouse, plasma, po, 100 mg/kg, PO 100 mg/kg in 0.5% methocell, mice, individual subject) of 17.2 µM, an AUC(0-t) [1] of 172 µM·h and an AUC [1] of 173 µM·h. The Tmax (male, C57BL/6N, mouse, plasma, po, 100 mg/kg, plasma, PO 100 mg/kg in 0.5% methocell, mice, Mean, read-out: Tmax) was 1.7 h, the AUC(0-t) [2] was 171 µM·h and the AUC [2] was 172 µM·h. For the same molecule, the Tmax (male, C57BL/6N, mouse, plasma, po, 100 mg/kg, plasma, PO 100 mg/kg in 0.5% methocell, mice, individual subject, read-out: Tmax) was 1 h, the clearance (male, C57BL/6N, mouse, plasma, mice, read-out: in vivo clearance) was 10 mL/min/kg and the “AUC (0-24 h)” value [3] was 186 µM·h and 160 µM·h. For the same molecule, the “AUC Extrap” value [3] was 186.4 µM·h and 161.7 µM·h, the Cmax [3] was 17 µM and 13 µM and the Tmax [3] was 2.00 h.
